“And” between values parts separate entries of the source, which are not always exact repeats. Identical values can stand only once.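 Five compound concentrations were applied to cells in 96-well plates for 48 hours; endpoints were derived by simple linear interpolation of the resulting dose-response curve. GI50: concentration for 50% inhibition of growth. The concentration for full growth arrest is given as TGI.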
How the values were obtained:
Experiment in all cases: inhibition of tumour cell growth, NCI panel, 48 h
NCI-H23 lung = system: NCI-H23 lung
HL-60(TB) leukemia = system: HL-60(TB) leukemia
SK-MEL-28 melanoma = system: SK-MEL-28 melanoma
LOX IMVI melanoma = system: LOX IMVI melanoma
786-0 renal = system: 786-0 renal
HCC-2998 colon = system: HCC-2998 colon
UACC-62 melanoma = system: UACC-62 melanoma
OVCAR-5 ovarian = system: OVCAR-5 ovarian
MDA-MB-231 breast = system: MDA-MB-231 breast
UO-31 renal = system: UO-31 renal

SMILES | TGI (NCI-H23 lung) | TGI (HL-60(TB) leukemia) [µM] | TGI (SK-MEL-28 melanoma) | TGI (LOX IMVI melanoma) | TGI (786-0 renal) | TGI (HCC-2998 colon) | TGI (UACC-62 melanoma) | TGI (OVCAR-5 ovarian) | TGI (MDA-MB-231 breast) | TGI (UO-31 renal) | GI50 (NCI-H23 lung) | GI50 (HL-60(TB) leukemia) | GI50 (SK-MEL-28 melanoma) | GI50 (LOX IMVI melanoma) | GI50 (786-0 renal) | GI50 (HCC-2998 colon) | GI50 (UACC-62 melanoma) | GI50 (OVCAR-5 ovarian) | GI50 (MDA-MB-231 breast) | GI50 (UO-31 renal)
Cc1ccc2nc(N/N=C/c3cccc(C)n3)cc(C)c2c1 | 43.2 µM | > 100 | 33.2 µM | 31.6 µM | 33.7 µM | 27.6 µM | 29.8 µM | 28.5 µM | 36 µM | 41.3 µM | – | – | – | – | – | – | – | – | – | –
O=[N+]([O-])/C=C/c1ccc([N+](=O)[O-])cc1 | 5.2 µM | 54.8 | 7.57 µM | 2.73 µM | 3.64 µM | 3.23 µM | 6.15 µM | 15.5 µM | 8.73 µM | 3.69 µM | 2.07 µM | 5.38 µM | 2.74 µM | 1.32 µM | 2.02 µM | 1.75 µM | 2.09 µM | 4.47 µM | 2.71 µM | 1.83 µM
C[C@@H]1COC(Nc2ccc3ncnc(Nc4ccc(OCc5nccs5)c(Cl)c4)c3c2)=N1 | > 10 µM and 37 µM | > 100 | > 10 µM and 18.9 µM | > 10 µM and 17 µM | > 10 µM and 27.9 µM | > 10 µM and 39.6 µM | > 10 µM and 14.9 µM | > 10 µM and 33.3 µM | > 10 µM and 27.2 µM | > 10 µM and 13.5 µM | 8.41 µM and 8.45 µM | 3.7 µM and 4.2 µM | 4.46 µM and 5.45 µM | 3.73 µM and 4.31 µM | 8.31 µM and 7.15 µM | > 10 µM and 11.9 µM | 6.14 µM and 3.39 µM | > 10 µM and 11.9 µM | 6.04 µM and 8.22 µM | 0.821 µM and 1.29 µM
COc1cc2c3c(n(CCCNCCNCCCN)c(=O)c2cc1OC)-c1cc2c(cc1C3=O)OCO2 | 10.9 µM | 51.7 | 20.1 µM | 3.75 µM | 14.5 µM | – | 8.18 µM | 21.4 µM | 3.59 µM | 23.6 µM | 2.73 µM | 6.11 µM | 6.6 µM | 1.08 µM | 3.24 µM | – | 1.87 µM | 3.82 µM | 1.19 µM | 5.67 µM
NC1=NC(c2ccc(F)cc2)C2=C(N1)c1ccc3ccccc3c1OCC2 (stereo not given) | > 100 µM | > 100 | > 100 µM | > 100 µM | > 100 µM | – | 30.9 µM | > 100 µM | > 100 µM | > 100 µM | 50.7 µM | > 100 µM | 18.6 µM | > 100 µM | 79.7 µM | – | 3.14 µM | > 100 µM | 47.4 µM | > 100 µM
COc1cc2c(cc1OC)-c1c(c3ccc([N+](=O)[O-])cc3c(=O)n1CCCN)C2=O | 1.55 µM | 3.38 | 15.3 µM | 1.17 µM | 1.84 µM | 0.759 µM | 10.8 µM | 9.54 µM | 1.54 µM | 3.59 µM | 0.548 µM | 1.28 µM | 7.25 µM | 0.325 µM | 0.716 µM | 0.0818 µM | 1.95 µM | 3.46 µM | 0.521 µM | 0.351 µM
CNCCOC(=O)/C=C1/CCC2C(C(O)CC3C(C)(C(=O)OC)CCCC23C)C1C (stereo not given) | 0.0355 µM | 0.0638 | 0.0758 µM | 0.042 µM | 0.0341 µM | 0.115 µM | 0.0559 µM | 0.0693 µM | 0.229 µM | 0.0372 µM | 0.0153 µM | 0.0261 µM | 0.029 µM | 0.0192 µM | 0.0166 µM | 0.0329 µM | 0.0235 µM | 0.0264 µM | 0.0604 µM | 0.0187 µM
COc1cc2c(cc1OCCCN1CCN(c3cc(=O)oc4c(C)c(OC)ccc34)CC1)N=C[C@@H]1CCCN1C2=O | 5.2 µM | 3.83 | 8.45 µM | 6.87 µM | 9.62 µM | 2.89 µM | 2.87 µM | > 100 µM | 5.99 µM | – | 1.89 µM | 0.456 µM | 2.56 µM | 0.826 µM | 1.05 µM | 1.44 µM | 1.36 µM | 1.34 µM | 0.984 µM | –
COc1ccc2[nH]cc(-c3nc(-c4c[nH]c5ccncc45)cs3)c2c1 | 3.85 µM | 3.47 | 3.44 µM | – | 3.41 µM | 3.32 µM | 3.35 µM | 4.74 µM | 3.25 µM | 3.46 µM | 1.76 µM | 1.51 µM | 1.94 µM | – | 1.84 µM | 1.87 µM | 1.78 µM | 2.37 µM | 1.65 µM | 1.75 µM
CN(C)S(=O)(=O)c1ccc(Nc2ccc(O)c3c2C(=O)c2c([N+](=O)[O-])ccc(O)c2C3=O)cc1 | > 100 µM | > 100 | > 100 µM | > 100 µM | > 100 µM | – | > 100 µM | > 100 µM | > 100 µM | > 100 µM | – | – | – | – | – | – | – | – | – | –
Cc1ccc(Oc2nc3ccccc3cc2-c2nnc(Cn3c(COc4ccccc4)nc4ccccc43)o2)cc1 | 20.7 µM | 7.88 | – | 4.32 µM | 11.8 µM | 15.3 µM | 20.7 µM | – | 4.62 µM | 10.2 µM | 4.66 µM | 2.85 µM | – | 1.59 µM | 3.09 µM | 4.4 µM | 5.62 µM | – | 1.64 µM | 1.19 µM
CCOC(=O)C1=C(c2ccccc2)N(c2ccc(OC)cc2)[C@]2(C#N)C(O)=C(Cl)C(Cl)=C(O)[C@]12C#N | 33.1 µM | 50.1 | 41.9 µM | 30.9 µM | 44.9 µM | – | – | 39 µM | 44.3 µM | 68 µM | 17.7 µM | 24.5 µM | 21.3 µM | 16.4 µM | 21.8 µM | – | – | 18.5 µM | 20.1 µM | 24.6 µM
N#C[C@H]1Nc2ccccc2[C@@H](O)C1O (stereo not given in full) | > 100 µM | > 100 | > 100 µM | > 100 µM | > 100 µM | > 100 µM | > 100 µM | > 100 µM | > 100 µM | – | – | – | – | – | – | – | – | – | – | –
N=C(N)c1ccc(-c2ccc(-c3ccc(F)cc3)o2)o1 | 4.88 µM | 4.4 | 3.18 µM | – | 3.49 µM | 2.81 µM | 3.27 µM | 3.4 µM | 3.33 µM | 2.78 µM | 1.93 µM | 1.8 µM | 1.63 µM | – | 1.66 µM | 1.37 µM | 1.74 µM | 1.66 µM | 1.57 µM | 1.43 µM
CN1C(=O)C(c2c[nH]c3ccccc23)=C(c2c(-c3c[nH]c4ccccc34)[nH]c3ccccc23)C1=O | 4.72 µM | 8.21 | 31.4 µM | 17 µM | 14.1 µM | – | 5.54 µM | 11.3 µM | 26.9 µM | > 100 µM | 1.7 µM | 2.41 µM | 10.4 µM | 4.67 µM | 3.44 µM | – | 2.91 µM | 2.85 µM | 4.09 µM | 15.2 µM
COc1ccc(-c2csc3c2-n2cccc2C3=O)cc1O | > 42.4 µM | 0.0955 | – | > 100 µM | 25.2 µM | 8.71 µM | 49.2 µM | > 100 µM | > 100 µM | 50.6 µM | 0.056 µM | 0.0163 µM | – | < 0.0182 µM | 0.0977 µM | 0.454 µM | 0.387 µM | 1.5 µM | 0.0925 µM | 0.401 µM
CC(=O)OC12CC(C)C3(O)C4C=C(C)C(=O)[C@@]4(O)CC(CO)=C[C@H]3C1C2(C)C (stereo not given in full) | > 1000 µM | > 1000 | > 1000 µM | > 1000 µM | > 1000 µM | – | > 1000 µM | > 1000 µM | – | > 1000 µM | > 1000 µM | 0.432 µM and 0.751 µM | > 1000 µM | > 1000 µM | > 1000 µM | 2.35 µM | – | > 1000 µM | – | > 1000 µM
Cc1cc(C)c2c(N)c3cccc(C)c3nc2n1 | 3.96 µM | 16.4 | 15.9 µM | 4.62 µM | 8.47 µM | 4.92 µM | – | 5.71 µM | 6.27 µM | 59.6 µM | 1.59 µM | 3.67 µM | 3.86 µM | 1.7 µM | 2.35 µM | 1.94 µM | – | 2.1 µM | 1.56 µM | 1.9 µM
CCOC(=O)c1cnc2cc3cccccc3n2c1=O | > 100 µM | > 100 | > 100 µM | > 100 µM | > 100 µM | > 100 µM | > 100 µM | > 100 µM | – | > 100 µM | – | – | – | – | – | – | – | – | – | –
COc1cc2c3c(n(C)c(=O)c2cc1OC)-c1cc2c(cc1/C3=C/[C@H](N)CCCCN)OCO2 | 21.9 µM | > 100 | 11.2 µM | 2.37 µM | 18 µM | – | 6.33 µM | 5.65 µM | 6.22 µM | 23 µM | 2.52 µM | 13.4 µM | 1.89 µM | 0.63 µM | 1.68 µM | – | 1.28 µM | 0.885 µM | 0.941 µM | 3.14 µM
CCCCCCCCCCCCCCCCn1cc[n+](Cc2ccccc2)c1C | 1.8 µM | 2.06 | 4.22 µM and 1.35 µM | – | 1.87 µM and 0.621 µM | 1.64 µM | 2.01 µM and 1.21 µM | 3.25 µM | 0.989 µM | 2.99 µM | 0.361 µM | 0.0496 µM | 1.7 µM and 0.246 µM | – | 0.541 µM and 0.21 µM | 0.413 µM | 0.577 µM and 0.232 µM | 1.48 µM | 0.0684 µM | 1.49 µM
